Measurements: US11091497B2, “Pyrano[3,4-b]pyrazine kappa opioid receptor ligands for treating addiction, pruritus, pain, and inflammation” (The Rockefeller University, priority 2017, dated 2021)
Read-outs that look alike come from different tables or passages of the source.

Experiments:
[1] = target: T1, kappa opioid receptor (PathHunter U2OS hOPRK1 membranes) (Homo sapiens, UniProt P41145); test: Tritiated U69,593 binding for KOP-R membranes
T1 construct: host or cells: U2OS (PathHunter U2OS hOPRK1 β-arrestin cell line)
T1 sequence (P41145 whole entry): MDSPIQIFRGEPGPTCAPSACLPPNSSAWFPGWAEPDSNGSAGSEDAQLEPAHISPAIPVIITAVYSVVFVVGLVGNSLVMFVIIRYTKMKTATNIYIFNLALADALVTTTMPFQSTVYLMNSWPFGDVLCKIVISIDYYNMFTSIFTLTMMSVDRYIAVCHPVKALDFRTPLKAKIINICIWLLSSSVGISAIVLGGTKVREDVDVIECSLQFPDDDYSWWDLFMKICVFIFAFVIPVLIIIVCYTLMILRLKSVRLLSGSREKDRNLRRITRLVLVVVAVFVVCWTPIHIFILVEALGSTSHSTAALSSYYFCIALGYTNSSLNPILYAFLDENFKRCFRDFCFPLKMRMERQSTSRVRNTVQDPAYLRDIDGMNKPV
Method: Tritiated U69,593 binding for KOP-R membranes; tritiated DAMGO binding for MOP-R membranes; and tritiated DPDPE binding for DOP-R membranes:
(§1) Membranes from cells stably expressing kappa, mu or delta opioid receptor constructs (PathHunter U2OS hOPRK1, CHO-K1 rOPRM1 and CHO-K1 OPRD1 β-arrestin cell line, DiscoverX, Fremont, Calif., USA) were used. Cells were scraped from tissue culture plates, homogenized with a tissue tearor homogenizer in membrane buffer (10 mM Tris, 100 mM NaCl, and 1 mM EDTA; pH 7.4), and centrifuged at 20,000 g for 30 minutes at 4° C. and frozen at −80° C. until use. Prior to use, the pellets were resuspended in binding buffer (50 mm Tris, 100 mm NaCl, pH 7.4), homogenized with a dounce homogenizer and […] incubated with 1.0 nM of the appropriate tritiated ligand ([^3H]U69,593, [^3H]DAMGO or [^3H]DPDPE for kappa, mu or delta binding, respectively) and the appropriate concentration of compound for 60 minutes at 30° C. Membranes with bound tritiated ligand were collected on Whatman GF/B filter paper (Brandel, Gaithersburg, Md., USA) utilizing a Brandel harvester. Bound tritiated ligand was quantified using a TriCarb-2900TR scintillation counter (Packard, Downers Grove, Ill., USA) following addition of 4 ml ReadySafe scintillation fluid (Beckman Coulter, Indianapolis, Ind., USA). Compiled data for each compound was normalized to the maximal binding in the absence of compound, with non-specific binding subtracted. Curve fitting was done in Microcal Origin 17.0 software using logistic sigmoidal fit, to determine IC50. GTPgammaS Membranes from U2OS cells stably expressing human kappa opioid receptors were used. Cells were scraped from tissue culture plates, homogenized with a tissue tearor homogenizer in membrane buffer (10 mM Tris, 100 mM NaCl, and 1 mM EDTA; pH 7.4), and centrifuged at 20,000 g for 30 minutes at 4° C. and frozen at −80° C. until use. Prior to use, the pellets were resuspended in assay buffer (50 mm Tris, 100 mm NaCl, 5 mM MgCl2, and 1 mM EDTA; pH 7.4) and homogenized with a dounce homogenizer and 50 μg incubated with 0.1 nM [35 S]GTPγS, 10 nM GDP, and the appropriate concentration of agonist for 20 minutes at 30° C. To test inhibition, all samples were incubated with 100 nM U69,593 as well as the appropriate concentration of compound. Membranes with bound [35 S]GTPγS were collected on Whatman GF/B filter paper (Brandel, Gaithersburg, Md., USA) utilizing a Brandel harvester. Bound [35 S]GTPγS was quantified using a TriCarb-2900TR scintillation counter (Packard, Downers Grove, Ill., USA) following addition of 4 mL ReadySafe scintillation fluid (Beckman Coulter, Indianapolis, Ind., USA). […] NA indicates not applicable. For each compound, curve fitting was done in Microcal Origin 17.0 software using logistic sigmoidal fit, to determine EC50 and maximal percent stimulation, which in turn was normalized to the maximal percent stimulation of the test full agonist compound U69,593 to determine % efficacy. β2-Arrestin Experiments were conducted using the PathHunter Detection Kit obtained from DiscoverX. Cells stably expressing kappa, mu or delta opioid receptor constructs (PathHunter U2OS hOPRK1, CHO-K1 rOPRM1 and CHO-K1 OPRD1 β-arrestin cell line, DiscoverX, Fremont, Calif., USA) were plated in 96- or 384-well plates. Cells were stimulated with the compounds for 90 minutes at 37° C. To test inhibition, all samples were incubated with 100 nM U69,593 as well as the appropriate concentration of compound. Cells were then incubated for 60 minutes in the presence of galoctosidase substrate, yielding chemiluminescent product. Chemiluminescence was measured using a Synergy Neo microplate reader (BioTek, Winooski, Vt., USA). Antagonism assays were done in the same manner, in the presence of 300 nM U69,593, 1 μM DAMGO or 1 μM DPDPE for KOP-R, MOP-R or DOP-R assays, respectively. […] NA indicates not applicable. […]

[2] = target: T2, kappa opioid receptor (PathHunter U2OS hOPRK1 β-arrestin cell line) (Homo sapiens, UniProt P41145); test: β-arrestin coupling (PathHunter Detection Kit); type: cell-based; settings: for Emax at 10 µM: U2OS
T2 construct: host or cells: U2OS (PathHunter U2OS hOPRK1 β-arrestin cell line)
T2 sequence (P41145 whole entry): as above
Method: as §1

[3] = target: T3, human kappa opioid receptors (Homo sapiens, UniProt P41145); test: [35S]GTPγS stimulation, membranes from U2OS cells; type: biochemical; settings: for Emax: read-out: GTPγS stimulation % efficacy
T3 construct: expressed in transfected cells; host or cells: U2OS
T3 sequence (P41145 whole entry): as above
Method: Membranes from cells stably expressing kappa, mu or delta opioid receptor constructs (PathHunter U2OS hOPRK1, CHO-K1 rOPRM1 and CHO-K1 OPRD1 β-arrestin cell line, DiscoverX, Fremont, Calif., USA) were used. Cells were scraped from tissue culture plates, homogenized with a tissue tearor homogenizer in membrane buffer (10 mM Tris, 100 mM NaCl, and 1 mM EDTA; pH 7.4), and centrifuged at 20,000 g for 30 minutes at 4° C. and frozen at −80° C. until use. Prior to use, the pellets were resuspended in binding buffer (50 mm Tris, 100 mm NaCl, pH 7.4), homogenized with a dounce homogenizer and […] incubated with 1.0 nM of the appropriate tritiated ligand ([^3H]U69,593, [^3H]DAMGO or [^3H]DPDPE for kappa, mu or delta binding, respectively) and the appropriate concentration of compound for 60 minutes at 30° C. Membranes with bound tritiated ligand were collected on Whatman GF/B filter paper (Brandel, Gaithersburg, Md., USA) utilizing a Brandel harvester. Bound tritiated ligand was quantified using a TriCarb-2900TR scintillation counter (Packard, Downers Grove, Ill., USA) following addition of 4 ml ReadySafe scintillation fluid (Beckman Coulter, Indianapolis, Ind., USA). Compiled data for each compound was normalized to the maximal binding in the absence of compound, with non-specific binding subtracted. Curve fitting was done in Microcal Origin 17.0 software using logistic sigmoidal fit, to determine IC50. GTPgammaS Membranes from U2OS cells stably expressing human kappa opioid receptors were used. Cells were scraped from tissue culture plates, homogenized with a tissue tearor homogenizer in membrane buffer (10 mM Tris, 100 mM NaCl, and 1 mM EDTA; pH 7.4), and centrifuged at 20,000 g for 30 minutes at 4° C. and frozen at −80° C. until use. Prior to use, the pellets were resuspended in assay buffer (50 mm Tris, 100 mm NaCl, 5 mM MgCl2, and 1 mM EDTA; pH 7.4) and homogenized with a dounce homogenizer and 50 μg incubated with 0.1 nM [35 S]GTPγS, 10 nM GDP, and the appropriate concentration of agonist for 20 minutes at 30° C. To test inhibition, all samples were incubated with 100 nM U69,593 as well as the appropriate concentration of compound. Membranes with bound [35 S]GTPγS were collected on Whatman GF/B filter paper (Brandel, Gaithersburg, Md., USA) utilizing a Brandel harvester. Bound [35 S]GTPγS was quantified using a TriCarb-2900TR scintillation counter (Packard, Downers Grove, Ill., USA) following addition of 4 mL ReadySafe scintillation fluid (Beckman Coulter, Indianapolis, Ind., USA). […] For each compound, curve fitting was done in Microcal Origin 17.0 software using logistic sigmoidal fit, to determine EC50 and maximal percent stimulation, which in turn was normalized to the maximal percent stimulation of the test full agonist compound U69,593 to determine % efficacy. β2-Arrestin Experiments were conducted using the PathHunter Detection Kit obtained from DiscoverX. Cells stably expressing kappa, mu or delta opioid receptor constructs (PathHunter U2OS hOPRK1, CHO-K1 rOPRM1 and CHO-K1 OPRD1 β-arrestin cell line, DiscoverX, Fremont, Calif., USA) were plated in 96- or 384-well plates. Cells were stimulated with the compounds for 90 minutes at 37° C. To test inhibition, all samples were incubated with 100 nM U69,593 as well as the appropriate concentration of compound. Cells were then incubated for 60 minutes in the presence of galoctosidase substrate, yielding chemiluminescent product. Chemiluminescence was measured using a Synergy Neo microplate reader (BioTek, Winooski, Vt., USA). Antagonism assays were done in the same manner, in the presence of 300 nM U69,593, 1 μM DAMGO or 1 μM DPDPE for KOP-R, MOP-R or DOP-R assays, respectively.

[4] = read-out: β-arrestin coupling % efficacy

| SMILES | IC50 [1] [nM] | EC50 [2] [nM] | Emax at 10 µM [2, 4] [%] | EC50 [3] [nM] | Emax [3] [%] | Emax at 10 µM ([2]; read-out: β-arrestin coupling % efficacy at 10 μM) [%] | IC50 ([1]; 1.0 nM [3H]U69,593, 60 minutes at 30° C., read-out: Binding IC50) [nM] | β-arrestin coupling % efficacy ([2]; maximal, normalized to U69,593, No stim = no stimulation at highest dose tested, 10,000 nM) |
| --- | --- | --- | --- | --- | --- | --- | --- | --- |
| Cc1ccc(CC(=O)N2CCN[C@@H]3COC[C@H](N4CCCC4)[C@H]32)cc1C(F)(F)F (racemic) [Example 5A47] | 31 | 4900 | 78 | 9 | 84 | – | – | – |
| O=C(Cc1ccc(Cl)c(C(F)(F)F)c1)N1CCN[C@@H]2COC[C@H](N3CCCC3)[C@H]21 (racemic) [Example 5A46] | 15 | – | – | 6.3 | 131 | 100 | – | – |
| COC(=O)N1CCN(C(=O)Cc2ccc(Cl)c(Cl)c2)[C@H]2[C@H]1COC[C@@H]2N1CCCC1 (racemic) [Example 5A67] | 41 | 5200 | 85 | 12 | 85 | – | – | – |
| O=C(Cc1cccc(Cl)c1)N1CCN[C@@H]2COC[C@H](N3CCCC3)[C@H]21 (racemic) [Example 5A24] | – | – | – | 213 | 64 | – | 251 | No stim |
